Assays:
Assay in all cases: relative viability (nuclei count vs DMSO), 5 days (fraction); higher = more cells survive
KIN001-266 + Phenformin = compound: CCN1CCC(CC1)N2C=C(N=N2)CNC3=CC4=C(C(=CN=C4C(=C3)Cl)C#N)NC5=CC(=C(C=C5)F)Cl [KIN001-266] + N=C(N)NC(=N)NCCc1ccccc1 [Phenformin] (partner 250 µM)
Procedure, shortened: (§1)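 Lung cancer cell lines were pin-tool dosed in 1536-well plates on the day after seeding, with either a lone drug or a fixed anchor-drug dose plus five library-drug doses (not always all listed) in √10 steps. Nuclei were counted on 4× images after 5 days. Relative viability is the ratio of treated-well to vehicle-well nuclei counts, with each value a median of duplicate plates.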

KIN001-266 + Lapatinib = compound: CCN1CCC(CC1)N2C=C(N=N2)CNC3=CC4=C(C(=CN=C4C(=C3)Cl)C#N)NC5=CC(=C(C=C5)F)Cl [KIN001-266] + CS(=O)(=O)CCNCc1ccc(-c2ccc3ncnc(Nc4ccc(OCc5cccc(F)c5)c(Cl)c4)c3c2)o1 [Lapatinib] (partner 2 µM)
Procedure, shortened: as §1

KIN001-266 + Olaparib = compound: CCN1CCC(CC1)N2C=C(N=N2)CNC3=CC4=C(C(=CN=C4C(=C3)Cl)C#N)NC5=CC(=C(C=C5)F)Cl [KIN001-266] + O=C(c1cc(Cc2n[nH]c(=O)c3ccccc23)ccc1F)N1CCN(C(=O)C2CC2)CC1 [Olaparib] (partner 8 µM)
Procedure, shortened: as §1

KIN001-266 + Trametinib = compound: CCN1CCC(CC1)N2C=C(N=N2)CNC3=CC4=C(C(=CN=C4C(=C3)Cl)C#N)NC5=CC(=C(C=C5)F)Cl [KIN001-266] + CC(=O)Nc1cccc(-n2c(=O)n(C3CC3)c(=O)c3c(Nc4ccc(I)cc4F)n(C)c(=O)c(C)c32)c1 [Trametinib] (partner 0.02 µM)
Procedure, shortened: as §1

| Cell Line | relative viability (KIN001-266 + Phenformin; first compound 0.08 µM) | relative viability (KIN001-266 + Phenformin; first compound 0.253 µM) | relative viability (KIN001-266 + Phenformin; first compound 0.8 µM) | relative viability (KIN001-266 + Phenformin; first compound 2.53 µM) | relative viability (KIN001-266 + Phenformin; first compound 8 µM) | relative viability (KIN001-266 + Lapatinib; first compound 0.08 µM) | relative viability (KIN001-266 + Lapatinib; first compound 0.253 µM) | relative viability (KIN001-266 + Lapatinib; first compound 0.8 µM) | relative viability (KIN001-266 + Lapatinib; first compound 2.53 µM) | relative viability (KIN001-266 + Lapatinib; first compound 8 µM) | relative viability (KIN001-266 + Olaparib; first compound 0.08 µM) | relative viability (KIN001-266 + Olaparib; first compound 0.253 µM) | relative viability (KIN001-266 + Olaparib; first compound 0.8 µM) | relative viability (KIN001-266 + Olaparib; first compound 2.53 µM) | relative viability (KIN001-266 + Olaparib; first compound 8 µM) | relative viability (KIN001-266 + Trametinib; first compound 0.08 µM) | relative viability (KIN001-266 + Trametinib; first compound 0.253 µM) | relative viability (KIN001-266 + Trametinib; first compound 0.8 µM) | relative viability (KIN001-266 + Trametinib; first compound 2.53 µM) | relative viability (KIN001-266 + Trametinib; first compound 8 µM) |
| --- | --- | --- | --- | --- | --- | --- | --- | --- | --- | --- | --- | --- | --- | --- | --- | --- | --- | --- | --- | --- |
| NCI-H520 | 0.793 | 0.633 | 0.706 | 0.376 | 0.58 | 0.899 | 0.85 | 1.02 | 0.718 | 0.886 | 0.339 | 0.299 | 0.374 | 0.267 | 0.239 | 0.727 | 0.628 | 0.561 | 0.624 | 0.645 |
| CAL-12T | 0.571 | 0.545 | 0.515 | 0.568 | 0.534 | 0.826 | 0.706 | – | 0.679 | 0.626 | 0.785 | 0.732 | 0.663 | 0.652 | 0.633 | 0.357 | 0.442 | 0.351 | 0.293 | 0.37 |
| EPLC-272H | 0.334 | 0.317 | 0.274 | 0.234 | 0.239 | 1.03 | 0.982 | 1.05 | 0.732 | 0.797 | 0.885 | 0.869 | 1.08 | 0.643 | 0.273 | 0.295 | 0.273 | 0.284 | 0.27 | 0.275 |
| NCI-H2405 | 0.401 | 0.412 | 0.378 | 0.379 | 0.155 | 1.08 | 1.23 | 1.09 | 1.16 | 0.936 | 0.889 | 0.905 | 0.906 | 0.853 | 0.642 | 0.64 | 0.658 | 0.661 | 0.615 | 0.61 |
| HCC-15 | 0.48 | 0.472 | 0.421 | 0.43 | 0.34 | 0.779 | 0.851 | 0.731 | 0.734 | 0.646 | 0.743 | 0.747 | 0.64 | 0.651 | 0.511 | 0.413 | 0.392 | 0.388 | 0.344 | 0.328 |
| PC-3 [JPC-3] | 0.466 | 0.496 | 0.48 | 0.475 | 0.477 | 0.451 | 0.447 | 0.422 | 0.414 | 0.499 | 1.09 | 1.21 | 1.08 | 1.14 | 0.963 | 0.785 | 0.739 | 0.554 | 0.741 | 0.607 |
| NCI-H1944 | 0.208 | 0.194 | 0.186 | 0.199 | 0.164 | 0.826 | 0.895 | 0.774 | 0.816 | 0.828 | 0.411 | 0.403 | 0.346 | 0.411 | 0.326 | 0.419 | 0.401 | 0.324 | 0.393 | 0.41 |
